Measurements reported in patent US20260325605A1, “INHIBITORS” (Zealand Pharma A/S, priority 2022, published 2026).

How the values were obtained:
Kv1.3 = molecular target: T1, Kv1.3 (Homo sapiens, UniProt P22001); assay: Patch clamp assay (QPatch), Kv1.3; format: cell-based; conditions: CHO cells stably expressing human Kv1.3, read-out: Potency IC50, Kv1.3
T1 construct: expressed in transfected cells

Kv1.2 = molecular target: T2, Kv1.2 (Homo sapiens, UniProt P16389); assay: Patch clamp assay (QPatch), Kv1.2; format: cell-based; conditions: for IC50: QPatch, CHO cells stably expressing human Kv1.2, read-out: Potency IC50, Kv1.2; for Selectivity Kv1.2/Kv1.3: ratio of IC50 Kv1.2/Kv1.3
T2 construct: expressed in transfected cells

Kv1.6 = molecular target: T3, Kv1.6 (Homo sapiens, UniProt P17658); assay: Patch clamp assay (QPatch), Kv1.6; format: cell-based; conditions: for IC50: QPatch, CHO cells stably expressing human Kv1.6, read-out: Potency IC50, Kv1.6; for Selectivity Kv1.6/Kv1.3: ratio of IC50 Kv1.6/Kv1.3
T3 construct: expressed in transfected cells

Kv1.1 = molecular target: T4, Kv1.1 (Homo sapiens, UniProt Q09470); assay: Patch clamp assay (QPatch), Kv1.1; format: cell-based; conditions: for IC50: QPatch, CHO cells stably expressing human Kv1.1, read-out: Potency IC50, Kv1.1; for Selectivity Kv1.1/Kv1.3: ratio of IC50 Kv1.1/Kv1.3
T4 construct: expressed in transfected cells

[1] = Example 6: Pharmacokinetic characterisation after s.c. administration; format: in vivo, rat (Sprague Dawley or Wistar); conditions: rat, 70 nmol/kg; for AUCINF / Cmax: plasma; for T1/2: plasma terminal elimination half-life
Protocol: Sprague Dawley or Wistar rats (males with a body weight of approximately 250-350 g) were given a single subcutaneous (s.c.) injection of each peptide to be tested.
Following s.c. administration of the selected peptides (dose 70 nmol/kg, dosing volume either 2 or 5 mL/kg), blood samples were drawn at 15 min, 30 min, 45 min, 60 min, 90 min, 2 h, 3 h, 4 h post-dose. At each sampling time point, samples from the rats were drawn by sublingual bleeding or by tail cut. After last sampling the rats were sacrificed by O2/CO2 anaesthesia. The dosing vehicle was 10 mM phosphate, 0.8% NaCl, 0.05% Polysorbate 20 (pH 6.0).
Plasma samples were analyzed after solid phase extraction (SPE) by liquid chromatography mass spectrometry (LC-MS/MS). Mean plasma concentrations were used for calculation of the pharmacokinetic parameters using the non-compartmental approach in Phoenix WinNonlin 6.4 or a later version. […]. AUCinf is the area under the plasma concentration−time curve extrapolated to infinity (AUCinf=AUClast+Clast/λz, where Clast is the last observed plasma concentration). Cmax is the maximum observed concentration, occurring at Tmax.

[2] = system: T-cell activation in rat whole blood; assay: Example 4: IL-17A release in thapsigargin stimulated rat whole blood; format: cell-based, rat (Lewis or Sprague-Dawley); conditions: 24 Hr, at least 2 replicates, unit inferred, read-out: IC50 (inhibition of IL-17A release)
Text: Rat whole blood was used to assess the potency of Kv1.3 inhibitor peptides on T-cell activation as determined by IL-17A release after stimulation with thapsigargin. Addition of thapsigargin results in activation of a signalling cascade ending up in activation of T cell proliferation and cytokine production where the Kv1.3 ion channel plays a key role, so activity of Kv1.3 inhibitors in primary cells can be measured in this experimental system.
Rat whole blood was obtained from healthy, naïve Lewis or Sprague-Dawley rats that were terminally bleed from the heart using Sodium Heparin blood sampling tubes for collection. Peptides were diluted to 4× final testing concentrations in assay buffer (DMEM+GlutaMAX), GlutaMAX is a medium comprising 3.97 mM L-alanine-L-glutamine (Gibco Cat #61965026) supplemented with 25 mM HEPES buffer, 1 mM Sodium Pyruvate, 100 units/ml Penicillin, 100 μg/ml Streptomycin and 0.05% Casein from bovine milk (Sigma-Aldrich)) and 25 μl was added to wells of a 96 well plate. Then 50 μl whole rat blood was added and incubated for minimum 5 minutes at room temperature to allow compound binding. Then 25 μl 40 μM thapsigargin diluted in assay buffer was added to all wells of the assay plates to activate the cells, followed by incubation for 24 Hr at 37° C./5% CO2 in a humidified box. The assay plates were centrifuged for 10 min at 300 g at 4° C. and the supernatants were transferred to new plates. The concentrations of IL-17A released to the supernatants were measured using a Rat IL-17A ELISA Kit (Abcam Cat #ab214028) as recommended by the manufacturer. Samples were diluted 2.5-fold by transferring 20 μl of the supernatants to wells on ELISA plates containing 30 μl buffer 75BS from the detection kit.
Data from peptides eliciting an inhibition of IL-17A were normalised relative to full thapsigargin activation (no inhibitor added) and no activation controls (addition of assay buffer instead of thapsigargin) to calculate the IC50 from the concentration response curve.
Results are shown in Table 5, expressed as IC50, with standard deviation (IC50_SD). All values are derived from at least 2 replicates. The biological effects ex vivo show a correlation with the potency of the peptides.

T2 sequence (P16389 whole entry): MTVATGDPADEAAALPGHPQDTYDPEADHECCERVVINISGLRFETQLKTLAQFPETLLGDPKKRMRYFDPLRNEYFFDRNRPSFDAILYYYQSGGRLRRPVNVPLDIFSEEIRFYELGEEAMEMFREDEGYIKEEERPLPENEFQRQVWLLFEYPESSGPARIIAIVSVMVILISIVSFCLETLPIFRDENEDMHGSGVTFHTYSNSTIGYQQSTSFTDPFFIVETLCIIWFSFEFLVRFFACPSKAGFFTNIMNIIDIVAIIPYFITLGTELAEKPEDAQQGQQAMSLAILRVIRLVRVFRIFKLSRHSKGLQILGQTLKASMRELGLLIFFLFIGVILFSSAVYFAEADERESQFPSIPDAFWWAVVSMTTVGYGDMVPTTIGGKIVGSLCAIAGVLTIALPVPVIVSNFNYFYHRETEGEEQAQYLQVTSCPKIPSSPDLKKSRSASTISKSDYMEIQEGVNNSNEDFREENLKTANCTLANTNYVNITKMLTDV
T1 sequence (P22001 whole entry): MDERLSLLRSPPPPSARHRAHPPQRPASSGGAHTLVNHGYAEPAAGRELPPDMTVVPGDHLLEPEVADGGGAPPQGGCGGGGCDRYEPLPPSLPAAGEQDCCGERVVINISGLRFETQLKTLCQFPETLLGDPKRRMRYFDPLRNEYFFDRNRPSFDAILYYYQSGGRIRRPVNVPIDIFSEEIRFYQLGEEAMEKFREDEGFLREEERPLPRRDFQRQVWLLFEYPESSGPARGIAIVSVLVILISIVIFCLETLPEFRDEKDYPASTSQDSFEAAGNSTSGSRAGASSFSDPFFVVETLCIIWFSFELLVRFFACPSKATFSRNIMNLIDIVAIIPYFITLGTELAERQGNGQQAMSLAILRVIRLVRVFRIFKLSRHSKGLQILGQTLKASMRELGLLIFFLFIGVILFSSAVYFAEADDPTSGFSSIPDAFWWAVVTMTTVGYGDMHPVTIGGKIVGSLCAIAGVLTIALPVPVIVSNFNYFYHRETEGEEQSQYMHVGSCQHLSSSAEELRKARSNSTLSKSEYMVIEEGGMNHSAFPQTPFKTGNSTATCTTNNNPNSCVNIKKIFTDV
T4 sequence (Q09470 whole entry): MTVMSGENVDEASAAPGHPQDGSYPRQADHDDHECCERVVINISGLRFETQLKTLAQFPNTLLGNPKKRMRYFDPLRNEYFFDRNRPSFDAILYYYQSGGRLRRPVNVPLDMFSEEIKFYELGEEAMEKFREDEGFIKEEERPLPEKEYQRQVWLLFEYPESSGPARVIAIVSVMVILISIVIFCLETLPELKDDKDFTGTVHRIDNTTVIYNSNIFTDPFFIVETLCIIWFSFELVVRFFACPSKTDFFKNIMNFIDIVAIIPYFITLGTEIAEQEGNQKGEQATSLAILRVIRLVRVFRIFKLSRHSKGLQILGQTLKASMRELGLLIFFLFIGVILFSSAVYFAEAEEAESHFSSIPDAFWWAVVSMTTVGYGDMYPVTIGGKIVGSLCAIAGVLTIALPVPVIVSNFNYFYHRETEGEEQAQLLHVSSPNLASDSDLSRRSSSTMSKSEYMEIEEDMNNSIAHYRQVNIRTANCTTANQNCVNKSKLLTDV
T3 sequence (P17658 whole entry): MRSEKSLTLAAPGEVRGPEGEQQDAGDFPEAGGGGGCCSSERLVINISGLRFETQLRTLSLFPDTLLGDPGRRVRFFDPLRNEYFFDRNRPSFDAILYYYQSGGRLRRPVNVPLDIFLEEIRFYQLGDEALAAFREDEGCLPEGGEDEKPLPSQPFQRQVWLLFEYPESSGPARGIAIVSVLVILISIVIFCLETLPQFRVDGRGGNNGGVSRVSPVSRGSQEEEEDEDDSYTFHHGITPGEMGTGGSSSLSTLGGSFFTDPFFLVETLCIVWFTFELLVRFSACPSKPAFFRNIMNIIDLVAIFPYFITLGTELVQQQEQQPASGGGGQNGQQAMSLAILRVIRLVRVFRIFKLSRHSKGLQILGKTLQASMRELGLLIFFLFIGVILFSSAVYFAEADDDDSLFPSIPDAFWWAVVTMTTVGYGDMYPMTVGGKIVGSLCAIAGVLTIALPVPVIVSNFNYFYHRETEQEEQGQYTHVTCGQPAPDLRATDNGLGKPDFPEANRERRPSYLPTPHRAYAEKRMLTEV

Substance	IC50 (Kv1.3) [nM]	IC50 (Kv1.2) [nM]	Selectivity Kv1.2/Kv1.3 (Kv1.2)	IC50 (Kv1.6) [nM]	Selectivity Kv1.6/Kv1.3 (Kv1.6)	IC50 (Kv1.1) [nM]	Selectivity Kv1.1/Kv1.3 (Kv1.1)	AUCINF [1] [µM·h]	Cmax [1] [nM]	T1/2 [1] [min]	IC50 [2] [nM]
H-MDMRC(1)SASVEC(2)KQKC(3)LKAIGSIFGKC(1)MNKKC(2)KC(3)YPR-OH [Peptide 6]	0.38	285	747	> 3000	>7900	> 3000	>7900	0.0724	48.4	55.8	
H-NIDMRC(1)SASVEC(2)KQKC(3)LKAIGSIFGKC(1)MNKKC(2)KC(3)YPR-OH [Peptide 9]	0.44	376	857	> 3000	>6800	> 3000	>6800	0.0983	76.9	37.2	
H-NID[Nle]RC(1)SASVEC(2)KQKC(3)LKAIGSIFGKC(1)[Nle]NKKC(2)KC(3)YPR-OH [Peptide 98]	0.27	2060	7756	> 3000	>11300	> 3000	>11300	0.085	46.5	65.4	1.2
H-NMDMRC(1)SASVEC(2)AQKC(3)LKAIGSIFGKC(1)MNKKC(2)KC(3)YPR-NH2 [Peptide 31]	0.14	666	4897	> 3000	>22000	> 3000	>22000	0.0467	33.3	44.4	0.41
H-NMDMRC(1)SASVEC(2)KQKC(3)LYAIGSIFGKC(1)MNKKC(2)KC(3)YPR-NH2 [Peptide 54]	0.29	149	514	> 3000	>10300	> 3000	>10300	0.0311	50	52.2	
H-N[Nle]D[Nle]RC(1)SASKEC(2)KQKC(3)LKAIGSIFGKC(1)[Nle]NKKC(2)KC(3)YPR-NH2 [Peptide 64]	0.31	184	587	1230	3929	> 3000	>9600				0.68
H-N[Nle]D[Nle]RC(1)SASVEC(2)KKKC(3)LKAIGSIFGKC(1)[Nle]NKKC(2)KC(3)YPR-NH2 [Peptide 46]	0.75	257	343	> 3000	>4000	> 3000	>4000				1.4
H-N[Nle]D[Nle]RC(1)SASVEC(2)KQKC(3)KAIGSIFGKC(1)[Nle]NKKC(2)KC(3)YPR-NH2 [Peptide 50]	1.34	164	123	946	707	> 3000	>2200				1
H-N[Nle]D[Nle]RC(1)SASVEC(2)KQKC(3)LKAIGSPFGKC(1)[Nle]NKKC(2)KC(3)YPR-NH2 [Peptide 63]	0.26	449	1740	2350	9102	> 3000	>11600				0.44
H-N[Nle]D[Nle]RC(1)SHSVEC(2)KQKC(3)LKAIGSIFGKC(1)[Nle]NKKC(2)KC(3)YPR-NH2 [Peptide 48]	0.54	772	1438	609	1134	> 3000	>5600				0.83
H-N[Nle]S[Nle]RC(1)SASVEC(2)KQKC(3)LKAIGSIFGKC(1)[Nle]NKKC(2)KC(3)YPR-NH2 [Peptide 47]	0.32	302	943	1400	4359	> 3000	>9400				0.79
H-PIE[Nle]RC(1)SASVEC(2)KQKC(3)LKAIGSIFGKC(1)[Nle]NKKC(2)KC(3)YPR-OH [Peptide 99]	0.39	1760	4561	> 3000	>7800	> 3000	>7800				1.8
H-P[Nle]D[Nle]RC(1)SASVEC(2)KQKC(3)LKAIGC(4)IFGKC(1)[Nle]NKKC(2)KC(3)YPC(4)-NH2 [Peptide 85]	0.63	624	995	1220	1949	> 3000	>4800				0.81
H-P[Nle]E[Nle]RC(1)SASVEC(2)KQKC(3)LAAIGSIFGKC(1)[Nle]NKKC(2)KC(3)YPR-NH2 [Peptide 101]	0.18	311	1689	> 3000	>16200	> 3000	>16200				0.34
H-RC(1)SASVEC(2)KQKC(3)LKAIGSIFGKC(1)[Nle]NKKC(2)KC(3)YPR-NH2 [Peptide 111]	0.4	280	708	1300	3290	> 3000	>7600				0.52
H-S[Nle]DERC(1)SASVEC(2)KQKC(3)LKAIGSIFGKC(1)MNKKC(2)KC(3)YPR-NH2 [Peptide 78]	0.28	122	430	> 3000	>10600	> 3000	>10600				0.55
H-S[Nle]D[Nle]RC(1)SASVEC(2)GQKC(3)LKAIGSIFGKC(1)MNKKC(2)KC(3)YPR-NH2 [Peptide 73]	0.11	373	3438	> 3000	>27700	> 3000	>27700				0.3
H-S[Nle]D[Nle]RC(1)SASVEC(2)KQKC(3)LKAIGSIFGKC(1)MNKKC(2)KC(3)[F(4-NH2)]PR-NH2 [Peptide 72]	0.25	423	1720	> 3000	>12200	> 3000	>12200				0.79
H-[Nle]D[Nle]RC(1)SASVEC(2)KQKC(3)LKAIGSIFGKC(1)[Nle]NKKC(2)KC(3)YPR-OH [Peptide 97]	0.17	1860	11034	> 3000	>17800	> 3000	>17800				0.55
